# Tested on: 966289-007-R4-J1-PDC complex spheroid viability
# Assay: Anticancer human tumor 966289-007-R4-J1-PDC patient-derived pancreatic adenocarcinoma cell line growth inhibition [GQUAD]
# Conditions: for IC50: curve of first compound; for viability, T/C: stronger effect = lower value
# How it was run: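 Viability of tumor cells grown as complex spheroids with endothelial and stromal cells, exposed to drug combinations. Top concentration at or near clinical Cmax (else 10 microM), diluted in half-log increments.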
# [1] = second compound 0.0316 µM, first compound 0.0316 µM
# [2] = second compound 0.0316 µM, first compound 0.1 µM
# [3] = second compound 0.0316 µM, first compound 0.316 µM
# [4] = second compound 0.0316 µM, first compound 1 µM
# [5] = second compound 0.0316 µM, first compound 3.16 µM
# [6] = second compound 0.0316 µM, first compound 10 µM
# [7] = second compound 0.1 µM, first compound 0.0316 µM
# [8] = second compound 0.1 µM, first compound 0.1 µM
# [9] = second compound 0.1 µM, first compound 0.316 µM
# [10] = second compound 0.1 µM, first compound 1 µM
# [11] = second compound 0.1 µM, first compound 3.16 µM
# [12] = second compound 0.1 µM, first compound 10 µM
# [13] = second compound 0.316 µM, first compound 0.0316 µM
# [14] = second compound 0.316 µM, first compound 0.1 µM
# [15] = second compound 0.316 µM, first compound 0.316 µM
# [16] = second compound 0.316 µM, first compound 1 µM
# [17] = second compound 0.316 µM, first compound 3.16 µM
# [18] = second compound 0.316 µM, first compound 10 µM
# [19] = second compound 1 µM, first compound 0.0316 µM
# [20] = second compound 1 µM, first compound 0.1 µM
# [21] = second compound 1 µM, first compound 0.316 µM
# [22] = second compound 1 µM, first compound 1 µM
# [23] = second compound 1 µM, first compound 3.16 µM
# [24] = second compound 1 µM, first compound 10 µM
# [25] = second compound 3.16 µM, first compound 0.0316 µM
# [26] = second compound 3.16 µM, first compound 0.1 µM
# [27] = second compound 3.16 µM, first compound 0.316 µM
# [28] = second compound 3.16 µM, first compound 1 µM
# [29] = second compound 3.16 µM, first compound 3.16 µM
# [30] = second compound 3.16 µM, first compound 10 µM
# [31] = second compound 10 µM, first compound 0.0316 µM
# [32] = second compound 10 µM, first compound 0.1 µM
# [33] = second compound 10 µM, first compound 0.316 µM
# [34] = second compound 10 µM, first compound 1 µM
# [35] = second compound 10 µM, first compound 3.16 µM
# [36] = second compound 10 µM, first compound 10 µM
# 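Also: spheroids exposed to the agents for seven days before readout.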
# 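For viability, T/C in this document: percent viability relative to DMSO vehicle control wells taken as 100%.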
structure (smiles),measurement,setting,value
C=CCn1c(=O)c2cnc(Nc3ccc(N4CCN(C)CC4)cc3)nc2n1-c1cccc(C(C)(C)O)n1 + Cc1cnc(CNC(=O)c2c(=O)c3ccc(N4CCCN(C)CC4)nc3n3c2sc2ccccc23)cn1,IC50,second compound 0.0316 µM,236 nM
same,IC50,second compound 0.1 µM,< 31.6 nM
same,IC50,second compound 0.316 µM,< 31.6 nM
same,IC50,second compound 1 µM,< 31.6 nM
same,IC50,second compound 3.16 µM,< 31.6 nM
same,IC50,second compound 10 µM,< 31.6 nM
same,"viability, T/C",[1],105%
same,"viability, T/C",[2],90%
same,"viability, T/C",[3],36.5%
same,"viability, T/C",[4],4.74%
same,"viability, T/C",[5],1.95%
same,"viability, T/C",[6],1.13%
same,"viability, T/C",[7],29.4%
same,"viability, T/C",[8],15.7%
same,"viability, T/C",[9],8.35%
same,"viability, T/C",[10],3.91%
same,"viability, T/C",[11],2.06%
same,"viability, T/C",[12],1.35%
same,"viability, T/C",[13],6.91%
same,"viability, T/C",[14],6.09%
same,"viability, T/C",[15],5.08%
same,"viability, T/C",[16],4.04%
same,"viability, T/C",[17],2.11%
same,"viability, T/C",[18],1.81%
same,"viability, T/C",[19],4.63%
same,"viability, T/C",[20],4.25%
same,"viability, T/C",[21],3.87%
same,"viability, T/C",[22],2.82%
same,"viability, T/C",[23],1.24%
same,"viability, T/C",[24],1.48%
same,"viability, T/C",[25],2.9%
same,"viability, T/C",[26],2.75%
same,"viability, T/C",[27],2.77%
same,"viability, T/C",[28],1.24%
same,"viability, T/C",[29],0.09%
same,"viability, T/C",[30],0.38%
same,"viability, T/C",[31],0.06%
same,"viability, T/C",[32],0.11%
same,"viability, T/C",[33],0.12%
same,"viability, T/C",[34],0.28%
same,"viability, T/C",[35],0.46%
same,"viability, T/C",[36],0.13%
O=C(NO)c1cnc(N2CCN(S(=O)(=O)c3ccc4ccccc4c3)CC2)nc1 + Cc1cnc(CNC(=O)c2c(=O)c3ccc(N4CCCN(C)CC4)nc3n3c2sc2ccccc23)cn1,IC50,second compound 0.0316 µM,209 nM
same,IC50,second compound 0.1 µM,< 31.6 nM
same,IC50,second compound 0.316 µM,< 31.6 nM
same,IC50,second compound 1 µM,< 31.6 nM
same,IC50,second compound 3.16 µM,< 31.6 nM
same,IC50,second compound 10 µM,< 31.6 nM
same,"viability, T/C",[1],96.4%
same,"viability, T/C",[2],87.3%
same,"viability, T/C",[3],28.8%
same,"viability, T/C",[4],8.77%
same,"viability, T/C",[5],2.84%
same,"viability, T/C",[6],0.33%
same,"viability, T/C",[7],31.3%
same,"viability, T/C",[8],31.9%
same,"viability, T/C",[9],10.8%
same,"viability, T/C",[10],4.55%
same,"viability, T/C",[11],2.02%
same,"viability, T/C",[12],0.31%
same,"viability, T/C",[13],7.24%
same,"viability, T/C",[14],5.47%
same,"viability, T/C",[15],3.67%
same,"viability, T/C",[16],2.76%
same,"viability, T/C",[17],1.03%
same,"viability, T/C",[18],0.05%
same,"viability, T/C",[19],4.18%
same,"viability, T/C",[20],2.98%
same,"viability, T/C",[21],3.68%
same,"viability, T/C",[22],0.86%
same,"viability, T/C",[23],0.32%
same,"viability, T/C",[24],0.05%
same,"viability, T/C",[25],1.88%
same,"viability, T/C",[26],2.14%
same,"viability, T/C",[27],0.08%
same,"viability, T/C",[28],0.05%
same,"viability, T/C",[29],0.06%
same,"viability, T/C",[30],0.1%
same,"viability, T/C",[31],0.03%
same,"viability, T/C",[32],0.09%
same,"viability, T/C",[33],0.1%
same,"viability, T/C",[34],0.09%
same,"viability, T/C",[35],0.53%
same,"viability, T/C",[36],0.23%

# From PubChem BioAssay AID2060488 (Molecular Pharmacology Branch, DTP, NCI, 2025)
